Source: patent US20260167623A1 (NIKANG THERAPEUTICS, INC., priority 2022, published 2026)

These compounds were tested against T1, CDK2 (Homo sapiens, UniProt P24941) (assay: Inhibition of CDK2: phospho-Rb (S807/811) HTRF measurement in OVCAR3 cells, 24 h). Conditions: 24 h compound treatment, read-out: pRB_OVCAR3_24h.
T1 construct: High-Throughput Measurement of Cellular Endogenous CDK2; endogenous in cells; host or cells: OVCAR3
Type: cell-based
Procedure: Inhibition of CDK2: Phospho-R^b Measurement in Cells
Phosphorylation of RB protein at S807/811 were measured using HTRF phospho-RB cellular kits (Cat #64RBS807PEG) from Cisbio.
On Day 1, OVCAR3 (CDK2 dependent cell line) cells were seeded into 96-well tissue-culture treated plates at 20,000 cells/well in 200 μL and incubated overnight at 37° C. in CO2 atmosphere. On Day 2, the cells were treated with test compounds at concentrations from 0.3 to 10,000 nM using HP D300 digital dispenser. Twenty-four hours after compound treatment, cell culture media is removed by flicking the plate and tapping the plate against clean paper towel. 30 μL 1× lysis buffer was supplemented from the kit was added to each well and the plate was incubated at room temperature on shaker for 30 min. After homogenization by pipetting up and down, 8 μL cell lysate from 96-well cell culture plate was transferred to 384-well small volume white detection plate. 2 μL premixed detection solution was added and the plate was covered with sealer. To prepare the detection solution, d2 conjugated-phospho-RB antibody and Eu-cryptate conjugated phosphor-RB antibody were diluted into detection buffer following manufacturer's instruction. Detection plates were incubated for 4 h at room temperature and read on ClarioStar (BMG Labtech) in TR-FRET mode (665 nM and 620 nM). The TR-FRET ratio (665 nM/620 nM) was plotted against the compound concentration and normalized to DMSO controls. Half maximal inhibition concentration (IC50) values were calculated with a four-parameter logistic fit using GraphPad Prism (version 8; La Jolla, CA).
For `COc1cnc(NC2CCN(S(=O)(=O)c3cccc(CN4CCC(c5ccc6c(N7CCC(=O)NC7=O)nn(C)c6c5)CC4)c3)CC2)nc1` [Example 57, 1-(6-(1-(3-((4-((5-methoxypyrimidin-2-yl)amino)piperidin-1-yl)sulfonyl)benzyl)-piperidin-4-yl)-1-methyl-1H-indazol-3-yl)dihydropyrimidine-2,4(1H,3H)-dione], the IC50 was 500 to 2500 nM.
`O=C1CCC(N2Cc3cc(N4CCN(CC5CCN(c6cccc(S(=O)(=O)N7CCC(Nc8ncc(Cl)cn8)CC7)c6)CC5)CC4)ccc3C2=O)C(=O)N1` (centres unmarked) [Example 98, 3-(5-(4-((1-(3-((4-((5-chloropyrimidin-2-yl)amino)piperidin-1-yl)sulfonyl)phenyl)-piperidin-4-yl)methyl)piperazin-1-yl)-1-oxoisoindolin-2-yl)piperidine-2,6-dione] showed an IC50 of 100 to 500 nM.
In the case of `O=C1CCC(N2Cc3cc(N4CCN(CC5CCN(c6cccc(S(=O)(=O)N7CCC(Nc8ncc(OC(F)F)cn8)CC7)c6)CC5)CC4)c(F)cc3C2=O)C(=O)N1` (centres unmarked) [Example 106, 3-(5-(4-((1-(3-((4-((5-(difluoromethoxy)-pyrimidin-2-yl)amino)piperidin-1-yl)sulfonyl)phenyl)piperidin-4-yl)methyl)-piperazin-1-yl)-6-fluoro-1-oxoisoindolin-2-yl)piperidine-2,6-dione], the IC50 is reported as 100 to 500 nM.
With `CC(Cc1cccc(S(=O)(=O)N2CCC(Nc3ncc(Cl)cn3)CC2)c1)CN1CCN(c2cc3c(cc2F)C(=O)N(C2CCC(=O)NC2=O)C3)CC1` (centres unmarked) [Example 97, 3-(5-(4-(3-(3-((4-((5-chloropyrimidin-2-yl)amino)piperidin-1-yl)sulfonyl)phenyl)-2-methylpropyl)piperazin-1-yl)-6-fluoro-1-oxoisoindolin-2-yl)piperidine-2,6-dione] the IC50 was 500 to 2500 nM.
`Cn1nc(N2CCC(=O)NC2=O)c2ccc(C3CCN(CC4CCN(c5cccc(S(=O)(=O)[C@H]6CC[C@H](Nc7ncc(C(F)(F)F)cn7)CC6)c5)CC4)CC3)cc21` [Example 240] showed an IC50 of over 2500 nM.
Work on `Cn1nc(N2CCC(=O)NC2=O)c2ccc(C3CCN(Cc4cnn(C5CCN(S(=O)(=O)N6CCC(Nc7ncc(Cl)cn7)CC6)CC5)c4)CC3)cc21` [Example 163, 1-(6-(1-((1-(1-((4-((5-chloropyrimidin-2-yl)amino)piperidin-1-yl)sulfonyl)piperidin-4-yl)-1H-pyrazol-4-yl)methyl)piperidin-4-yl)-1-methyl-1H-indazol-3-yl)dihydropyrimidine-2,4(1H,3H)-dione] yielded an IC50 of over 2500 nM.
For `Cn1nc(N2CCC(=O)NC2=O)c2ccc(C3CCN(Cc4cccc(S(=O)(=O)N5CC(Nc6ncc(C(F)(F)F)cn6)C5)c4)CC3)cc21` [Example 154, 1-(1-methyl-6-(1-(3-((3-((5-(trifluoromethyl)pyrimidin-2-yl)amino)azetidin-1-yl)sulfonyl)benzyl)piperidin-4-yl)-1H-indazol-3-yl)dihydropyrimidine-2,4(1H,3H)-dione], the IC50 was over 2500 nM.
Work on `Cc1ncsc1-c1ccc([C@H](C)NC(=O)[C@@H]2C[C@@H](O)CN2C(=O)[C@@H](NC(=O)CC2CCN(Cc3cccc(S(=O)(=O)N4CCC(Nc5ncc(C(F)(F)F)cn5)CC4)c3)CC2)C(C)(C)C)cc1` [Example 9, (2S,4R)-1-((S)-3,3-dimethyl-2-(2-(1-(3-((4-((5-(trifluoromethyl)pyrimidin-2-yl)amino)piperidin-1-yl)sulfonyl)-benzyl)piperidin-4-yl)acetamido)butanoyl)-4-hydroxy-N-((S)-1-(4-(4-methylthiazol-5-yl)phenyl)ethyl)pyrrolidine-2-carboxamide] yielded an IC50 of 100 to 500 nM.
Work on `Cn1cc(C2CCC(=O)NC2=O)c2ccc(C3CCN(CC4CCN(c5cccc(S(=O)(=O)N6CCC(Nc7ncc(Cl)cn7)CC6)c5)CC4)CC3)cc21` (centres unmarked) [Example 254, 3-(6-(1-((1-(3-((4-((5-chloropyrimidin-2-yl)amino)piperidin-1-yl)sulfonyl)phenyl)piperidin-4-yl)methyl)piperidin-4-yl)-1-methyl-1H-indol-3-yl)piperidine-2,6-dione] yielded an IC50 of 100 to 500 nM.
`N#Cc1ccc(S(=O)(=O)N2CCC(Nc3ncc(Cl)cn3)CC2)cc1N1CCC(CN2CCN(c3ccc4c(c3)CN(C3CCC(=O)NC3=O)C4=O)CC2)CC1` (centres unmarked) [Example 200, 4-((4-((5-chloropyrimidin-2-yl)amino)piperidin-1-yl)sulfonyl)-2-(4-((4-(2-(2,6-dioxopiperidin-3-yl)-1-oxoisoindolin-5-yl)piperazin-1-yl)methyl)piperidin-1-yl)benzonitrile] was tested, and the IC50 was 100 to 500 nM.
Compound `Cn1nc(N2CCC(=O)NC2=O)c2ncc(C3CCN(CC4CCN(c5cccc(S(=O)(=O)N6CCC(Nc7ncc(Cl)cn7)CC6)c5)CC4)CC3)cc21` [Example 215] has an IC50 of 500 to 2500 nM.
`Cn1nc(N2CCC(=O)NC2=O)c2cccc(C3CCN(CC4CCN(c5cccc(S(=O)(=O)N6CCC(Nc7ncc(C(F)(F)F)cn7)CC6)c5)CC4)CC3)c21` [Example 145, 1-(1-methyl-7-(1-((1-(3-((4-((5-(trifluoro-methyl)pyrimidin-2-yl)amino)piperidin-1-yl)sulfonyl)phenyl)piperidin-4-yl)methyl)-piperidin-4-yl)-1H-indazol-3-yl)dihydropyrimidine-2,4(1H,3H)-dione] gave an IC50 of 100 to 500 nM.
`Cn1nc(N2CCC(=O)NC2=O)c2ccc(C3CCN(CC4CCN(c5cccc(S(=O)(=O)N6CCC(Nc7ncc(CC(F)(F)F)cn7)CC6)c5)CC4)CC3)cc21` [Example 243, 1-(1-methyl-6-(1-((1-(3-((4-((5-(2,2,2-trifluoroethyl)pyrimidin-2-yl)amino)piperidin-1-yl)sulfonyl)phenyl)piperidin-4-yl)methyl)piperidin-4-yl)-1H-indazol-3-yl)dihydropyrimidine-2,4(1H,3H)-dione] showed an IC50 of 500 to 2500 nM.
Work on `O=C1CCC(N2C(=O)c3cc(F)c(N4CCN(CC5CCN(c6cccc(S(=O)(=O)N7CCC(Nc8ncc(Cl)cn8)CC7)c6)CC5)CC4)cc3C2=O)C(=O)N1` (centres unmarked) [Example 79, 5-(4-((1-(3-((4-((5-chloropyrimidin-2-yl)amino)piperidin-1-yl)sulfonyl)phenyl)-piperidin-4-yl)methyl)piperazin-1-yl)-2-(2,6-dioxopiperidin-3-yl)-6-fluoroisoindoline-1,3-dione] yielded an IC50 of 500 to 2500 nM.
`Cn1nc(C2CCC(=O)NC2=O)c2ccc(C3CCN(CC4CCN(c5cccc(S(=O)(=O)N6CCC(Nc7ncc(Cl)cn7)CC6)c5)CC4)CC3)cc21` (centres unmarked) [Example 246, 3-(6-(1-((1-(3-((4-((5-chloropyrimidin-2-yl)amino)piperidin-1-yl)sulfonyl)phenyl)piperidin-4-yl)methyl)piperidin-4-yl)-1-methyl-1H-indazol-3-yl)piperidine-2,6-dione] gave an IC50 of 500 to 2500 nM.
For `Cn1nc(N2CCC(=O)NC2=O)c2ccc(C3CCN(CC4CCN(c5ccc(S(=O)(=O)N6CCC(Nc7ncc(Cl)cn7)CC6)cc5)CC4)CC3)cc21` [Example 158, 1-(6-(1-((1-(4-((4-((5-chloropyrimidin-2-yl)amino)piperidin-1-yl)sulfonyl)phenyl)piperidin-4-yl)methyl)piperidin-4-yl)-1-methyl-1H-indazol-3-yl)dihydropyrimidine-2,4(1H,3H)-dione], the IC50 was 500 to 2500 nM.
For `Cn1nc(N2CCC(=O)NC2=O)c2ccc(C3CCN(Cc4cccc(S(=O)(=O)N5CCC(Nc6ncc(OC(F)F)cn6)CC5)c4)CC3(F)F)cc21` (centres unmarked) [Example 75, 1-(6-(1-(3-((4-((5-(difluoromethoxy)-pyrimidin-2-yl)amino)piperidin-1-yl)sulfonyl)benzyl)-3,3-difluoropiperidin-4-yl)-1-methyl-1H-indazol-3-yl)dihydropyrimidine-2,4(1H,3H)-dione], the IC50 was 100 to 500 nM.
